Measured values: patent US20230417767A1, “COMPOSITIONS AND METHODS FOR THE DIAGNOSIS AND TREATMENT OF AGE-RELATED MACULAR DEGENERATION” (Georgetown University, priority 2016, published 2023)

Experiments:
APP = APP expression in retina of mice fed high fat diet containing compound; assay type: in vivo; details: compound in high fat diet (telmisartan, UPF 0.001%; fenofibrate 0.1%), 11 weeks, FIG. 21
Protocol: (§1) Quantitative Real-Time Polymerase Chain Reaction Analyses. Total RNA was extracted with the RNeasy kit (Qiagen), treated with RNase-free DNase I (Qiagen), and reverse transcribed with oligo-dT using the SuperScript III cDNA synthesis kit (Invitrogen). Quantitative PCR was performed with the QuantiTect SYBR Green PCR Kit (Qiagen). Specific primers for each gene were designed with the PrimerQuest software (Integrated DNA Technologies), and the cDNA sequences of each gene (GenBank) were used to produce 100-250 bp PCR amplicons that span one or more exon/intron boundaries.
(§2) The HET mice described in Example 2 were administered various compounds to determine the effects of these compounds on the development of AMD. In the High Fat Diet (HFD) experiments, 5 wild type (WT) mice, 5 PGC-1α+/−mice, 5 PGC-1α−/−mice at 2 months old with C57BL/6 background were fed with regular diet (RD) or high fat diet for 16 weeks. […]
(§3) To test the effects of telmisartan, fenofibrate and UPF 1069 on mice, 5 wild type (WT) mice, 5 PGC-1α+/−mice, 5 PGC-1α−/−mice at 2 months old were administrated with RD, HFD, or HFD (Testdiet, 5015) containing one of the three compounds. […] 11 weeks after beginning of administration of the compounds, the mice were sacrificed, the body weight was measured, the eyes were enucleated, with the retinas being extracted and processed for RNA isolation. […]

AMD RPE = experiment: Cell viability of AMD RPE under oxidative stress; assay type: cell-based, human; details: FIG. 16E-G
Protocol: RPE were cultured at 80-90% confluency in 96-well plates, at 37° C. with 5% O2 and 5% CO2. Oxidative stress was induced with different concentrations of H2O2 ranging from 0-10 mM for 24 or 48 hrs, followed by cell viability measurements. Cell viability was measured following a 30 min incubation with the PestoBlue Reagent (Life Technologies) of RPE monolayers cultured on 96-well plates, 6 wells used for each sample. Fluorescence measurements were performed using an Ultra384 plate reader with 535 nm excitation and 612 nm emission wavelengths.

PGC-1α [1] = experiment: PGC-1α gene expression in retinal pigment epithelium (RPE); assay type: cell-based, human; details: FIG. 16A-C
Description: (§4) FIGS. 1-3 show various representations of an in vitro disease model of AMD. A total of 10 eyes from 5 organ donors clinically diagnosed with dry AMD and 10 eyes from 5 clinically normal donors were purchased from Lions Medical Eye Bank. RPE were isolated according to established protocols (Maminishkis et al., 2006) and cultured in Epithelial Cell Media (EpiCM, ScienCell) under controlled oxygen (5%) and CO2 (5%) conditions. Studies have shown that low (physiological) oxygen concentration promotes RPE growth (Knorr et al., 1993) and better protects from ROS-induced damage in vitro. RPE were then purified with Magnetic-Activated Cell Sorting (MACS) by positive selection for epithelial cells using anti-BEST1 antibody (Abcam) and anti-E-cadherin (Miltenyi Biotech); and by negative selection using a fibroblast-specific antibody (Miltenyi Biotech) to remove fibroblasts. The purity of the sorted cells was confirmed by immunostaining with anti-ZO-1 and anti-BEST1, and Real-Time PCR for RPE specific genes. The RPE cells were grown in Epithelial Cell Media (EpiCM, ScienCell) at 37° C., with 5% O2 and 5% CO2. […] Skin fibroblasts from a dry AMD patient were used to generate iPSC-RPE. Genotyping of the donors and the patient is represented in FIG. 3.
(§5) Quantitative Real-Time Polymerase Chain Reaction Analyses. […] Quantitative PCR was performed with the QuantiTect SYBR Green PCR Kit (Qiagen). […]

APOE = APOE expression in retina of mice fed high fat diet containing compound; assay type: in vivo; details: compound in high fat diet (telmisartan, UPF 0.001%; fenofibrate 0.1%), 11 weeks, FIG. 22
Protocol: as §1, §2, §3

APOJ = APOJ expression in retina of mice fed high fat diet containing compound; assay type: in vivo; details: genotype (WT or HET) not stated; telmisartan 0.001% in high fat diet, 11 weeks; FIG. 23A
Protocol: as §1, §2, §3

AMPK = AMPK phosphorylation in RPE; assay type: cell-based, human; details: FIG. 16D
Description: as §4, with “Genotyping of the donors and the patient is represented in FIG. 3.” left out
Immunoblot analysis. […] Protein concentrations were measured by Bradford assay (Bio-Rad). Protein samples were analyzed using the NuPAGE electrophoresis and XCell Western blot system (Invitrogen). […]

PGC-1α [2] = experiment: PGC-1α gene expression in mice fed high fat diet containing compound; assay type: in vivo; details: compound in high fat diet (telmisartan, UPF 0.001%; fenofibrate 0.1%), 11 weeks, FIG. 24
Protocol: as §1, §2, §3

APOB = APOB expression in retina of mice fed high fat diet containing compound; assay type: in vivo; details: PGC-1α+/− (HET) mice; compound in high fat diet (telmisartan, UPF 0.001%; fenofibrate 0.1%), 11 weeks; FIG. 20
Protocol: as §1, §2, §3

[3] = test system: Acyl-CoA Dehydrogenase (ACADM); experiment: Acyl-CoA Dehydrogenase (ACADM) expression in RPE; assay type: cell-based, human; details: FIG. 16A-C
Description: as §4, §5

Compound | APP levels in the retina (APP; PGC-1α+/− (HET) mice) | APP levels in the retina (APP; WT mice) | cell viability under oxidative stress (AMD RPE) | PGC-1α expression (PGC-1α [1]; AMD RPE) | PGC-1α expression (PGC-1α [1]; normal (control) RPE) | APOE levels in the retina (APOE; PGC-1α+/− (HET) mice) | APOE levels in the retina (APOE; WT mice) | APOJ levels (APOJ) | AMPK phosphorylation (AMPK; AMD RPE) | AMPK phosphorylation (AMPK; normal (control) RPE) | PGC-1α expression (PGC-1α [2]; PGC-1α+/− (HET) mice) | PGC-1α expression (PGC-1α [2]; WT mice) | APOB levels in the retina (APOB) | Acyl-CoA Dehydrogenase (ACADM) expression ([3]; AMD RPE) | Acyl-CoA Dehydrogenase (ACADM) expression ([3]; normal (control) RPE)
CCCc1nc2c(C)cc(-c3nc4ccccc4n3C)cc2n1Cc1ccc(-c2ccccc2C(=O)O)cc1 [telmisartan] | unable to decrease | significant increase | increasing | increasing | increasing | significantly reduce | significantly reduce | did not reduce | inducing | inducing | significantly Increase | significantly increased | significantly reduce | increasing | increasing
O=C(O)c1cc(C(=O)O)c2c(n1)C(=O)C(=O)c1cc(C(=O)O)[nH]c1-2 [PQQ, pyrroloquinoline quinone] | – | – | increasing | – | – | – | – | – | – | – | – | – | – | – | –
